{
  "source": "the supplement of paper PMC10307832",
  "assay_in_all_cases": "relative viability (nuclei count vs DMSO), 5 days (fraction); higher = more cells survive",
  "key": {"[1]": {"compound": "CN(C)C[C@@H]1CCn2cc(c3ccccc32)C2=C(C(=O)NC2=O)c2cn(c3ccccc23)CCO1 [Ruboxistaurin]", "method_in_brief": "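Lung cancer cell lines received five library-drug doses (not always all listed) spaced by √10, pinned on vehicle-anchored 1536-well plates after an overnight stay at 37 °C. Five days later, with no medium change, nuclei were Hoechst-stained, imaged at 4× and counted with MetaXpress. Viability is treated-well nuclei relative to vehicle-well nuclei, as a median across plates. Passing plates had control CV below 25% and at least one doubling.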"}, "[2]": {"compound": "CN(C)C[C@@H]1CCn2cc(c3ccccc32)C2=C(C(=O)NC2=O)c2cn(c3ccccc23)CCO1 [Ruboxistaurin] + O=C(c1cc(Cc2n[nH]c(=O)c3ccccc23)ccc1F)N1CCN(C(=O)C2CC2)CC1 [Olaparib] (partner 8 µM)", "method_in_brief": "(§1)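 Relative viability equals treated-well nuclei counts divided by vehicle-well nuclei counts. Counts came from 4× images of lung cancer cell lines grown in 1536-well plates for 5 days after pin-tool dosing on the day after seeding. Dosing used one drug alone or a fixed anchor-drug dose plus five library-drug doses (not always all listed) in √10 steps, and values are medians of duplicate plates.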"}, "[3]": {"compound": "CN(C)C[C@@H]1CCn2cc(c3ccccc32)C2=C(C(=O)NC2=O)c2cn(c3ccccc23)CCO1 [Ruboxistaurin] + CS(=O)(=O)N1CCN(Cc2cc3nc(-c4cccc5[nH]ncc45)nc(N4CCOCC4)c3s2)CC1 [Pictilisib] (partner 1 µM)", "method_in_brief": "as §1"}, "[4]": {"compound": "CN(C)C[C@@H]1CCn2cc(c3ccccc32)C2=C(C(=O)NC2=O)c2cn(c3ccccc23)CCO1 [Ruboxistaurin] + COc1cc2c(Oc3ccc(NC(=O)C4(C(=O)Nc5ccc(F)cc5)CC4)cc3F)ccnc2cc1OCCCN1CCOCC1 [Foretinib] (partner 0.25 µM)", "method_in_brief": "as §1"}, "[5]": {"compound": "CN(C)C[C@@H]1CCn2cc(c3ccccc32)C2=C(C(=O)NC2=O)c2cn(c3ccccc23)CCO1 [Ruboxistaurin] + CC1(C)CCC(c2ccc(Cl)cc2)=C(CN2CCN(c3ccc(C(=O)NS(=O)(=O)c4ccc(N[C@H](CCN5CCOCC5)CSc5ccccc5)c(S(=O)(=O)C(F)(F)F)c4)cc3)CC2)C1 [Navitoclax] (partner 0.5 µM)", "method_in_brief": "as §1"}, "[6]": {"compound": "CN(C)C[C@@H]1CCn2cc(c3ccccc32)C2=C(C(=O)NC2=O)c2cn(c3ccccc23)CCO1 [Ruboxistaurin] + CS(=O)(=O)CCNCc1ccc(-c2ccc3ncnc(Nc4ccc(OCc5cccc(F)c5)c(Cl)c4)c3c2)o1 [Lapatinib] (partner 2 µM)", "method_in_brief": "as §1"}, "[7]": {"compound": "CN(C)C[C@@H]1CCn2cc(c3ccccc32)C2=C(C(=O)NC2=O)c2cn(c3ccccc23)CCO1 [Ruboxistaurin] + Cc1nc(NC(=O)N2CCC[C@H]2C(N)=O)sc1-c1ccnc(C(C)(C)C(F)(F)F)c1 [Alpelisib] (partner 2 µM)", "method_in_brief": "as §1"}, "[8]": {"compound": "CN(C)C[C@@H]1CCn2cc(c3ccccc32)C2=C(C(=O)NC2=O)c2cn(c3ccccc23)CCO1 [Ruboxistaurin] + C[C@]1(O)C[C@@H](c2nc(-c3ccc4ccc(-c5ccccc5)nc4c3)c3c(N)nccn32)C1 [Linsitinib] (partner 1 µM)", "method_in_brief": "as §1"}, "[9]": {"compound": "CN(C)C[C@@H]1CCn2cc(c3ccccc32)C2=C(C(=O)NC2=O)c2cn(c3ccccc23)CCO1 [Ruboxistaurin] + CC(C)C[C@H](NC(=O)[C@H](Cc1ccccc1)NC(=O)c1cnccn1)B(O)O [Bortezomib] (partner 0.002 µM)", "method_in_brief": "as §1"}, "[10]": {"compound": "CN(C)C[C@@H]1CCn2cc(c3ccccc32)C2=C(C(=O)NC2=O)c2cn(c3ccccc23)CCO1 [Ruboxistaurin] + C[C@@H](Oc1cc(-c2cnn(C3CCNCC3)c2)cnc1N)c1c(Cl)ccc(F)c1Cl [Crizotinib] (partner 1 µM)", "method_in_brief": "as §1"}},
  "data": [
    {"cell line": "NCI-H1299", "values": [
      {"measurement": "relative viability", "setting": "[1]; 0.08 µM", "result": 1.06},
      {"measurement": "relative viability", "setting": "[1]; 0.8 µM", "result": 1},
      {"measurement": "relative viability", "setting": "[1]; 2.53 µM", "result": 1.01},
      {"measurement": "relative viability", "setting": "[1]; 8 µM", "result": 1.09},
      {"measurement": "relative viability", "setting": "[2]; first compound 0.08 µM", "result": 0.95},
      {"measurement": "relative viability", "setting": "[2]; first compound 0.8 µM", "result": 1.02},
      {"measurement": "relative viability", "setting": "[2]; first compound 2.53 µM", "result": 0.976},
      {"measurement": "relative viability", "setting": "[2]; first compound 8 µM", "result": 1.08},
      {"measurement": "relative viability", "setting": "[3]; first compound 0.08 µM", "result": 0.841},
      {"measurement": "relative viability", "setting": "[3]; first compound 0.8 µM", "result": 0.51},
      {"measurement": "relative viability", "setting": "[3]; first compound 2.53 µM", "result": 0.731},
      {"measurement": "relative viability", "setting": "[3]; first compound 8 µM", "result": 0.45},
      {"measurement": "relative viability", "setting": "[4]; first compound 0.08 µM", "result": 1.11},
      {"measurement": "relative viability", "setting": "[4]; first compound 0.8 µM", "result": 1.11},
      {"measurement": "relative viability", "setting": "[4]; first compound 2.53 µM", "result": 1.16},
      {"measurement": "relative viability", "setting": "[4]; first compound 8 µM", "result": 1.21},
      {"measurement": "relative viability", "setting": "[5]; first compound 0.08 µM", "result": 1.08},
      {"measurement": "relative viability", "setting": "[5]; first compound 0.8 µM", "result": 1.01},
      {"measurement": "relative viability", "setting": "[5]; first compound 2.53 µM", "result": 1.07},
      {"measurement": "relative viability", "setting": "[5]; first compound 8 µM", "result": 1.06},
      {"measurement": "relative viability", "setting": "[6]; first compound 0.08 µM", "result": 0.997},
      {"measurement": "relative viability", "setting": "[6]; first compound 0.8 µM", "result": 0.931},
      {"measurement": "relative viability", "setting": "[6]; first compound 2.53 µM", "result": 0.993},
      {"measurement": "relative viability", "setting": "[6]; first compound 8 µM", "result": 0.962},
      {"measurement": "relative viability", "setting": "[7]; first compound 0.08 µM", "result": 1.08},
      {"measurement": "relative viability", "setting": "[7]; first compound 0.8 µM", "result": 1.07},
      {"measurement": "relative viability", "setting": "[7]; first compound 2.53 µM", "result": 1.07},
      {"measurement": "relative viability", "setting": "[7]; first compound 8 µM", "result": 1.16},
      {"measurement": "relative viability", "setting": "[8]; first compound 0.08 µM", "result": 1.03},
      {"measurement": "relative viability", "setting": "[8]; first compound 0.8 µM", "result": 0.921},
      {"measurement": "relative viability", "setting": "[8]; first compound 2.53 µM", "result": 0.951},
      {"measurement": "relative viability", "setting": "[8]; first compound 8 µM", "result": 1.15},
      {"measurement": "relative viability", "setting": "[9]; first compound 0.08 µM", "result": 1.05},
      {"measurement": "relative viability", "setting": "[9]; first compound 0.8 µM", "result": 1.02},
      {"measurement": "relative viability", "setting": "[9]; first compound 2.53 µM", "result": 1.05},
      {"measurement": "relative viability", "setting": "[9]; first compound 8 µM", "result": 1.08},
      {"measurement": "relative viability", "setting": "[10]; first compound 0.08 µM", "result": 0.921},
      {"measurement": "relative viability", "setting": "[10]; first compound 0.8 µM", "result": 0.978},
      {"measurement": "relative viability", "setting": "[10]; first compound 2.53 µM", "result": 0.99},
      {"measurement": "relative viability", "setting": "[10]; first compound 8 µM", "result": 1.02}
    ]}
  ]
}
